Assay results taken from paper doi:10.1101/2025.10.17.681057v1 (biorxiv, 2025).

How the values were obtained:
CYP3A4 = CYP3A4 (Homo sapiens, UniProt P08684); experiment: P450 spectral binding titration
human CYP2J2 = biological target: T1, human CYP2J2 (Homo sapiens, UniProt P51589); experiment: P450 spectral binding titration
T1 sequence (P51589 1-502): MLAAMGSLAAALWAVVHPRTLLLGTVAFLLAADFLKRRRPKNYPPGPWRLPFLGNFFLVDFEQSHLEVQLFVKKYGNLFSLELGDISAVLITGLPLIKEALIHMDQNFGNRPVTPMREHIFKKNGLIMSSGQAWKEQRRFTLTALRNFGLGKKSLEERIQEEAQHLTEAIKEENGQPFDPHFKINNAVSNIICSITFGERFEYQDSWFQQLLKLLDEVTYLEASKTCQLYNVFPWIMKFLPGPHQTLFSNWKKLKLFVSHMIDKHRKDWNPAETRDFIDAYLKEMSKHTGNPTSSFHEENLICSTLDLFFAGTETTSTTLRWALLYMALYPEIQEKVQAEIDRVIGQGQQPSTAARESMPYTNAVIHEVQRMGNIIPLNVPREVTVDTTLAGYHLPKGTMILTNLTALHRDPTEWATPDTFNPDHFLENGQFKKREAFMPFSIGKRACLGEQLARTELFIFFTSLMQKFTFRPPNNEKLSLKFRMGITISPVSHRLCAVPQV

[1] = biological target: T2, Fatty Acid Amide Hydrolase (FAAH) (Homo sapiens, UniProt O00519); experiment: fluorescence assay of AMC release from anandamide-AMC, 4-parameter logistic fit; assay type: biochemical
T2 sequence (O00519 1-579): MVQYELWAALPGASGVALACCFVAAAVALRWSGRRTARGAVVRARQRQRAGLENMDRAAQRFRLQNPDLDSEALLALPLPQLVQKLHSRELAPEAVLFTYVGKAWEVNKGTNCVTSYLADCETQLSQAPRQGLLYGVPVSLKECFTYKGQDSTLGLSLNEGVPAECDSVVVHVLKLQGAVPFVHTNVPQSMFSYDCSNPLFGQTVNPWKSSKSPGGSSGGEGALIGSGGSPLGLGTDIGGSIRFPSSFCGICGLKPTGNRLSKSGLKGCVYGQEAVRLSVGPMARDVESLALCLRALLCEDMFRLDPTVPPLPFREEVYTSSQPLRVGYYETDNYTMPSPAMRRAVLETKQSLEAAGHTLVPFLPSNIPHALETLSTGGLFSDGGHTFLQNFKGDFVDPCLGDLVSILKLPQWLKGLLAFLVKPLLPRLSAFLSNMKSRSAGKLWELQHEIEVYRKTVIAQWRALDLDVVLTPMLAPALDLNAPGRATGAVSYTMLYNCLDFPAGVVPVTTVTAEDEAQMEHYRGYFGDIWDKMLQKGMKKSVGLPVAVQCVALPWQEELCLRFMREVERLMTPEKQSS

Chain of CYP3A4 (P08684 2-503): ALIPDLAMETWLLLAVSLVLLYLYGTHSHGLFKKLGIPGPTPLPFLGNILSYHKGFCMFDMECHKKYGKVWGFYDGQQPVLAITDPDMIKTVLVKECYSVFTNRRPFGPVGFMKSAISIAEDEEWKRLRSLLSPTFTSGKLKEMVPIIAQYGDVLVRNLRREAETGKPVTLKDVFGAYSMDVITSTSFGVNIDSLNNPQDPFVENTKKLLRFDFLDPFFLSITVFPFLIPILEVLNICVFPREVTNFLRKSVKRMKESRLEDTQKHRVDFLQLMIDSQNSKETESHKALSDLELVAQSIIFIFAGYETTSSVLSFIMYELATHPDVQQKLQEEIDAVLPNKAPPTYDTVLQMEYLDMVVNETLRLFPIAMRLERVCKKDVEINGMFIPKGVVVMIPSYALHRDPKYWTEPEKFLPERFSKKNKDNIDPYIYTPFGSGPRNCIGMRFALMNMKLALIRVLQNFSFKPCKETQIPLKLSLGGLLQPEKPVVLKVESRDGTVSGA

CC/C=C\C/C=C\C/C=C\C/C=C\C/C=C\C/C=C\CCC(=O)NCC(=O)O [DHA-Gly]
Kd (CYP3A4): 20.3 ± 6.13 µM | Kd (human CYP2J2): 2.47 ± 0.26 µM | IC50 [1]: 35.3 ± 1.82 µM

CCCCC/C=C\C/C=C\C/C=C\C/C=C\CCCC(=O)NCC(=O)O [NA-Gly]
Kd (human CYP2J2): 3.3 ± 0.31 µM | IC50 [1]: 14.2 ± 1.07 µM
